According to patent publication US9814732B2, “Ulipristal acetate for prevention and treatment of breast tumors” (LABORATOIRE HRA-PHARMA, priority 2012, dated 2017):

Assays:
[1] = system: HBE cells; assay: Apoptosis, sub-G1 quantification by flow cytometry in HBE cells; format: cell-based, human; settings: 96 h
Protocol: (§1) After seeding, cells were cultured for 24 h in serum and phenol red free medium. Then treatments were carried out in a phenol red free medium containing 5% dextran-charcoal stripped serum. Cells were treated with P or DEX (100 nM), alone or in combination with UPA, RU (1 nM to 1 μM) or CDB-3877 (100 nM). Control cells were treated with ethanol, at […] 1:1000 final ethanol concentration alone as vehicle or E2 (10 nM).
(§2) After 96 h or 48 h of hormonal treatment, respectively, for HBE or MCF-7 and T-47D cells, cells were washed in PBS, matrix dissociated with accutase enzyme (PAA laboratory, Les Mureaux, France), and centrifuged 5 minutes at 1350 rpm. Cells were fixed and frozen at −20° C. in 70% ethanol. Before analysis, cells were washed in PBS and stained with 10 μg/ml propidium iodide in PBS (containing 0.835 U/ml RNase A) (Sigma, St Quentin Fallavier, France). For each sample at least 10 000 cells were counted in a BD LSR II flow cytometer (BD Biosciences, Le Pont de Claix, France). After gating out doublets and debris, cycle distribution was analyzed using the ModFit LT software (Verity Software House, USA).

[2] = system: T-47D cells; assay: Apoptosis, sub-G1 quantification by flow cytometry in T-47D cells; format: cell-based, human; settings: 48 h
Protocol: as §1, §2

[3] = target: T1, GR (Homo sapiens, UniProt P04150); assay: GRE-Luc reporter gene transactivation in MCF-7 cells; format: cell-based; design: endogenous in cells; host or cells: MCF-7; settings: MCF7, DEX 100 nM, test compound 100 nM, read-out: inhibition of DEX-induced luciferase transactivation (GRE-Luc)
T1 sequence (P04150 1-777): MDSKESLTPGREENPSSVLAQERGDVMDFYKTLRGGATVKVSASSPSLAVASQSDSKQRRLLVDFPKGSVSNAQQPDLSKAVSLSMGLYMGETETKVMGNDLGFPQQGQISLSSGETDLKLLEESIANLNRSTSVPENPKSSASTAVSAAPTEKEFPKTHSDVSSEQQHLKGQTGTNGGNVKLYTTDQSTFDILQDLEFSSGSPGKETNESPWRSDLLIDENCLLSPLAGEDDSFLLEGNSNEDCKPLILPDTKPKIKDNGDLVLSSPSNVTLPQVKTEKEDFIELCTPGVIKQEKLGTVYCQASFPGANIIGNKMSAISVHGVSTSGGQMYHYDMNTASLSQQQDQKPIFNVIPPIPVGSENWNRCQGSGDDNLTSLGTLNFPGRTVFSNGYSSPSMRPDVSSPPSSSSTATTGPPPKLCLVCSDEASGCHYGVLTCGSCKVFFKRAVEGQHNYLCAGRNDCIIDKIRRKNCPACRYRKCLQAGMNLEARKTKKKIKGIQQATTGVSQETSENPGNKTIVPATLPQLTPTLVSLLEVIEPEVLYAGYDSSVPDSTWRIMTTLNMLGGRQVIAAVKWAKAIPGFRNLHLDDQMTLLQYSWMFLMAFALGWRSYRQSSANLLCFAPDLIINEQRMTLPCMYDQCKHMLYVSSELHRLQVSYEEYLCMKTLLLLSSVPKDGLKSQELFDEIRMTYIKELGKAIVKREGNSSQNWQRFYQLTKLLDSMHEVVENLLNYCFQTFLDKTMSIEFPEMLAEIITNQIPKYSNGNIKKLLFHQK

[4] = target: T2, PR (Homo sapiens, UniProt P06401); assay: MMTV-Luc reporter gene transactivation in T-47D cells; format: cell-based; design: constitutively expressed high amounts of PR (progesterone receptor); endogenous in cells; host or cells: T-47D
T2 sequence (P06401 1-933): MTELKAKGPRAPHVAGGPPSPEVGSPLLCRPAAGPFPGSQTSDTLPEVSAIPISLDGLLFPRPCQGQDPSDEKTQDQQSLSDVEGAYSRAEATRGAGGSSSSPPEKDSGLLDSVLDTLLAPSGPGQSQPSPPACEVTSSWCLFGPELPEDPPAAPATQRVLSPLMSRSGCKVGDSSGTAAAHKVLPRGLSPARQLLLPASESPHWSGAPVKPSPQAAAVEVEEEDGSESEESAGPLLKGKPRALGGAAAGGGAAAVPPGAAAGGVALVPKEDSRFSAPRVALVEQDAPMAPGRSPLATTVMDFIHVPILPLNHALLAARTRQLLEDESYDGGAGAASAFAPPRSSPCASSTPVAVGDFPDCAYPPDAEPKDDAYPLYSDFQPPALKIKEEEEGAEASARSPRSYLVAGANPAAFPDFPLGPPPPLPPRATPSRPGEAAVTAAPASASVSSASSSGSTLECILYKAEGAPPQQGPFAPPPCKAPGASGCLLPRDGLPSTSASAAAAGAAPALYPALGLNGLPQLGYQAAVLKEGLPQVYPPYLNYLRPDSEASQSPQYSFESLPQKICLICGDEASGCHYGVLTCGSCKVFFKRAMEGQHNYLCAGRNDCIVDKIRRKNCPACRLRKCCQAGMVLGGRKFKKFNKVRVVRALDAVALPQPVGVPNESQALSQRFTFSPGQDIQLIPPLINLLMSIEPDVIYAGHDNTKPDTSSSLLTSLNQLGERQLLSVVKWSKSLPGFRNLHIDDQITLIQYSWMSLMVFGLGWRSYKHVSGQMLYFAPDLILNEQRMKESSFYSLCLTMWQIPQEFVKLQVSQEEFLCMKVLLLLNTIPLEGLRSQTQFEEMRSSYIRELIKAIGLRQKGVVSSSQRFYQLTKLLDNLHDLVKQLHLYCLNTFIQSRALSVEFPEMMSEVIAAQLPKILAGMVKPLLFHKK
Protocol: T-47D and MCF-7 cell lines were respectively maintained in RPMI 1640 and in DMEM medium supplemented with 10% fetal calf serum (PAA Laboratory, Les Mureaux, France). […] Normal human breast epithelial cell (HBE) primary cultures were obtained from 20 women (aged 17-50 years). […] HBE cells were maintained in HAM F10 medium (PAA Laboratory, Les Mureaux, France) containing hydrocortisone (5 ng/ml), Triiodo-L-thyronine (6.5 ng/ml), choleratoxin (10 ng/ml), transferrin (5 mg/ml), insulin (0.016 U/ml), epidermal growth factor (10 ng/ml) (Sigma, St Quentin Fallavier, France) and 5% human serum (Etablissement Français du Sang).
After seeding, cells were cultured for 24 h in serum and phenol red free medium. Then treatments were carried out in a phenol red free medium containing 5% dextran-charcoal stripped serum. […] Control cells were treated with ethanol, at 10 1:1000 final ethanol concentration alone as vehicle or E2 (10 nM).
Cells were transfected with reporter gene plasmids containing glucocorticoid and progesterone responsive elements (GRE/PRE): 1) the MMTV-Luc is a Mouse Mammary Tumor Virus Long Terminal Repeat promoter containing one GRE/PRE palindrome and three GRE/PRE hemi-palindromes upstream to firefly luciferase gene in pFC31 vector, 2) the GRELuc contains six copies of GRE/PRE palindrome upstream to firefly luciferase gene in pBL vector. When indicated, HBE cells were transfected with human PR isoforms hPR-A and hPR-B expression plasmids constructed in POP3 vectors. Rous Sarcoma Virus promoter upstream to beta galactosidase gene (pRSV-β-Gal) was transfected in each experiment as control. Transfections were performed according to the manufacturer instructions using Lipofectamine or Lipofectamine LTX Reagents (Invitrogen, Cergy-Pontoise, France) for breast cancer cell lines or HBE cells, respectively. After 24 h of transfection, breast cancer and HBE cells were treated with hormones for 24 h or 48 h, respectively. At the end of the experiment, cells were lysed and luciferase activity was determined using the Luciferase Assay System (Promega, Charbonnières-les-bains, France). Beta galactosidase activity was assessed using the Galacto Star kit (Applied Biosystems, Courtaboeuf, France) to normalize luciferase activity data.

Structure (SMILES): CC(=O)O[C@]1(C(C)=O)CCC2C3CCC4=CC(=O)CCC4=C3[C@@H](c3ccc(N(C)C)cc3)C[C@@]21C (stereo partly drawn) [UPA, 17[…]-acetoxy-11[…]-[4-N,N-dimethylamino-phenyl)-19-norpregna-4,9-diene-3,20-dione]
- cell apoptosis (sub-G1 percentage), compound alone ([1]; 100 nM): had no apoptotic or survival properties by itself
- effect of UPA on DEX-mediated anti-apoptotic effect ([1]; DEX 100 nM + UPA 100 nM): both hormones activities were reversed
- effect of UPA on P-mediated apoptosis ([1]; P 100 nM + UPA 100 nM): both hormones activities were reversed
- cell apoptosis (sub-G1 percentage), compound alone ([2]; 100 nM): had no apoptotic or survival properties by itself
- effect of UPA on P-mediated apoptosis ([2]; P 100 nM + UPA 100 nM): tended to inhibit this effect
- inhibition at 0.1 µM [3]: 59 ± 3.4%
- PR antagonist response on MMTV-Luc transactivation at 1 nM ([4]; P 100 nM, antagonist 1 nM): Partial antagonist responses
- PR antagonist action on MMTV-Luc transactivation ([4]; P 100 nM, antagonist 1000 to 10 nM): potent PR antagonist actions from 1000 to 10 nM
- progestational agonist properties on reporter gene transcription ([4]; compound alone): did not exhibit progestational agonist properties
